The source of these data is patent US12329754B2 (priority 2018, dated 2025).

SMILES strings stand for the structures. pEC50: −log10 of the molar value. Counter-ions that a name gives are not always drawn. Like-named read-outs stand apart in the source and are kept apart here.

For series [1], the system named is EBOV-Zaire GP/HIV-luc pseudovirus. The class given is cell-based, Zaire ebolavirus.
The test system is the same in series [2]. The series is described as follows: organism not typed. The class given is cell-based, Zaire ebolavirus. To be noted: for pEC50: HEK-293T, read-out: half-maximum effect concentration (EC50) against EBOV.
For series [3], the system named is MARV-GP/HIV-luc pseudovirus. Description: microbe, parasite or virus in culture. The class given is cell-based. To be noted: read-out: EC50 against the Marburg virus entering the host.
In series [4] the test system is LASV-GP/HIV-luc pseudovirus. Description: organism not typed. To be noted: read-out: EC50 against the Lassa virus entering the host. Type of series: cell-based.

Regarding `O=C1Nc2ccc(Cl)cc2[C@@](C#CC2CC2)(C(F)(F)F)O1` [efavirenz], the “inhibition effect on the virus when added at 6 h (TOA)” value in series [1] is “still had an inhibition effect”.
As for `COc1cc2c3cc1Oc1c(OC)c(OC)cc4c1[C@@H](Cc1ccc(O)c(c1)Oc1ccc(cc1)C[C@@H]3N(C)CC2)N(C)CC4` [berbamine dihydrochloride], the “inhibition rate on the EBOV-Zaire GP/HIV-luc pseudovirus” value in series [2] is recorded as “over 80%”. Besides, the pEC50 in series [2] (48 h) is 6.31; in series [2] it was 6.31; in series [3], 6.00; in series [4] it was 5.58. Besides, the “effect on cell activity (CCK-8, OD 450 nm)” value in the series with 293T cells is reported as “no significant effect”.
